What was measured:
erythrocytes = test: Erythrocyte membrane integrity by lactate dehydrogenase release; assay type: cell-based, human; settings: erythrocyte suspension, 10, 50 and 100 µg/mL, 8 hours
Protocol: Erythrocytes produce lactate dehydrogenase (LDH), which may be measured photometrically using the LDH test kit/Lactate Dehydrogenase Assay Kit (Colorimetric) (ab102526) ([50]). For the LDH investigation, blood was obtained from the neighbouring blood bank. The erythrocyte suspension was made according to the methodology described in our earlier research. In 1mL of erythrocyte solution was treated with specific amount of Cabozantinib (CNB), PLGA-PSar-encapsulated Cabozantinib nanoparticles (CNB-PLGA-PSar-NPs), and placebo (PLGA-PSar-NPs) ([51]). Positive control sample was created by diluting erythrocyte suspension with 1% Triton-X-100, whereas negative control sample was created by diluting erythrocyte suspension with normal saline solution. […] LDH was detected at 500nm after a ready-to-use LDH solution was added to the supernatant. The total of LDH was calculated using the following formula. […]
Where, A sample stands for Cabozantinib, PLGA-PSar-encapsulated Cabozantinib nanoparticles (CNB-PLGA-PSar-NPs) incubated erythrocytes absorbance, A negative control indicates, erythrocytes absorbance of sample, which was pre-treated with normal saline solution. The A standard indicates the absorbance of erythrocytes sustention, which were pre-treated with 150/UL Lactate dehydrogenase (LDH) enzyme. […]

Hep Par 1 = test: Immunohistochemistry of xenograft tumour sections; assay type: in vivo, SCID female mice; settings: five 400 µm × 400 µm zones
Protocol: Paraffin 10µm thick sections of xenograft HePG2 cancer cell tissues embedded in liver parenchyma blocks. The blocks were […] in a 10 mM citrate buffer solution and autoclaved for 20 minutes to extract antigens. After heating the section slide blocks, they were allowed to cool for 1.5 hours at room temperature. The sectioned slides were then incubated overnight at 4°C with a primary antibody against Hepatocyte specific antigen (Hep Par 1) (91091816- SK-HEP-1, Sigma-Aldrich, Bengaluru, India). Further, section slides were incubated with enzyme-linked immunosorbent assay (ELISA) horseradish peroxidase (HRP) conjugated Goat anti-Rabbit IgG (H+L) secondary antibody (Thermo Fisher Scientific, Vadodara, Gujarat) for 1hr followed by treatment with 120µL […] (Dako). For analysing the results of Immunohistochemistry, five square zones […] were measured and averaged for the number of stained cells in each sectioned slide. Using GraphPad Prism 9 (San Diego, California) and student t-test statistical analyses were performed.

[1] = Pharmacokinetic study, plasma by RP-HPLC; assay type: in vivo, Male Albino Wister rats; settings: rats, 20 mg/kg intravenous
Protocol: 06 Male Albino Wister rats (200 to 250 g) are separated into two groups (n=3) for the purpose of conducting pharmacokinetic studies ([55]). For up to 72 hours, a comparative plasma concentration-time profile of Cabozantinib (CNB), CNB-PLGA-PSar-NPs was analysed. […] Using the tail vein of rats, 500µL of blood samples were collected at 0, 0.5, 1, 2, 4, 8, 16, 24, 48, and 72 hours from three animals in each group. Blood samples were stored in a microcentrifuge tube and centrifuged at 7,500 rpm for 30 minutes at 25°C to separate supernatant plasma. The collected samples were analysed using the RP-HPLC system and stored at -80°C (1290 Infinity II LC System, Agilent, USA). Using kinetica 5.0 pharmacokinetics software, the obtained RP-HPLC variables were interpreted in terms of their pharmacokinetics (Thermo Fisher Scientific, Yokohama)

[2] = system: HePG2 cells Xenograft model; test: In vivo anti-tumour efficacy study, HePG2 xenograft; design: species or system SCID female mice; settings: 20 mg/kg i.v. once weekly, 21 days
Protocol: The SCID female mice of 8-10 weeks old were used in the in vivo effectiveness study ([53]). SCID stands for severe combined immunodeficiency disorder. Mice were housed in individually ventilated cages with pelleted food, a 12-hour/12-hour dark-light cycle, and unrestricted access to water (supplied ad libitum) in a climate-controlled setting with a temperature range of 25°C ± 3°C. The National Institutes of Health's guidelines for the care and use of animals were followed when conducting all animal experiments, which included those at Animal House of […], India. These facilities also complied with CPCSEA (Committee for the Purpose of Control and Supervision of Experiments on Animals) regulations. Mice were subcutaneously injected with cultured HePG2 cells (5x10^6 cells) in 200μL of RPMI 1640 with 33% Corning Matrigel Basement Membrane Matrix (Sigma-Aldrich, India). […] A digital electronic calliper was used to measure the tumor's size twice a week. To assess toxicity, body weight was monitored twice weekly. Tumour volume was calculated as […]. The SCID female mice were given thiopental anaesthesia prior to being killed by cervical dislocation. Before being implanted in paraffin wax, liver tissues and tumour bulbs from the descending liver were collected and preserved overnight in 10% formalin (CH2O) with a pH 7.4 phosphate buffer solution.

[3] = Tissue distribution studies; assay type: in vivo, SCID mice; settings: 20 mg/kg i.v. bolus, killed eight hours later
Description: Tissue distribution studies in mice with SCID are required in anti-liver cancer activity to determine the distribution and concentration of a drug within the body after administration ([54]). This information is important for understanding how the drug is metabolized and cleared by the body, as well as for determining appropriate dosing regimens. Additionally, tissue distribution studies can help to identify any potential toxicities or side effects associated with the drug in specific organs or tissues. In the case of anti-liver cancer activity, knowing the distribution of the drug in the liver would be particularly important to ensure the drug is reaching its target site and effectively inhibiting the growth of cancer cells. The tissue distribution of a bolus dosage of 20 mg/kg i.v. Cabozantinib (CNB), CNB-PLGA-PSar-NPs was documented. The greatest concentration of CNB was found in liver parenchymal hepatocyte tissue. […] The increased affinity of CNB in the liver and pancreas enables the medication molecule to effectively treat liver cancer.
The tissue distribution was studied by separating 18 SCID mice into three groups (each group had six mice). The drug and its Nano formulations were administered intravenously (i.v.) at a bolus dose of 20 mg/kg. Groups of mice were given a dosage and then killed eight hours later. […] The samples were analysed using RP-UHPLC (Dionex Ultimate, 3000). […]

[4] = male, Albino Wister, rat, plasma

C0 [1, 4] [ng/mL]	Cmax [1, 4] [ng/mL]	MRT [1, 4] [h]	Vd [1, 4] [L]	clearance [1, 4] [mL/min]	t1/2 [1] [h]	Compound	LDH release / erythrocyte membrane integrity (erythrocytes)	Hep Par 1 labelling index (Hep Par 1)	reduction in the size of the tumour compared to the vehicle control [2] [%]	tissue distribution [3]
						Triton X 100	exceptionally significant LDH release			
215 ± 16.3	241 ± 34.2	7.45 ± 0.24	1.522 ± 0.00154	2.08	5.21 ± 0.18	COc1cc2nccc(Oc3ccc(NC(=O)C4(C(=O)Nc5ccc(F)cc5)CC4)cc3)c2cc1OC [CNB, Cabozantinib]	would not alter the integrity of erythrocyte membranes	9.22 ± 1.67	60.3	more widely distributed in the parenchymal hepatocyte tissue
